The values that follow come from publication PMC10666768, “Optimized peptide nanofibrils as efficient transduction enhancers for in vitro and ex vivo gene transfer” (Frontiers in Immunology, 2023).

Structures are written as SMILES. “Also recorded” adds a separate entry of the source. Peptide text beside a SMILES is read from it.

Data set [1] relates to human T cells. The conditions noted are these: trypan blue after 7 days.
Data set [2] deals with NF-κB pathway. Kind of data set: THP1-Dual cells, NF-κB pathway (SEAP). Type of data set: cell-based. The conditions noted are these: 24 h. On the procedure:
To analyze if PNFs stimulate an immune response, different PNFs concentrations (5, 10, 30 and 50 µg/ml) and 0.1 µg/ml lipopolysaccharide (LPS, InvivoGen, Cat: tlrl-eklps) as a positive control were incubated with 70,000 THP1-Dual cells, a monocyte cell line that allows the simultaneous analysis of the NF-κB and interferon regulatory factor (IRF) pathway, which are major effectors of the innate immune response ([45]). After 24 h, cellular supernatants were analyzed for the activation of the NF-κB pathway by measuring the activity of secreted alkaline phosphatase (SEAP). Therefore, 20 µl supernatant was mixed with 120 µl Alkaline Phosphatase Blue Microwell Substrate (Sigma Aldrich, Cat: AB0100-1KT). After 10 min, 30 µl Alkaline Phosphatase Stop Solution (Sigma Aldrich, Cat: A5852) was added and adsorption at 620 nm was measured using VersaMax Microplate Reader (Molecular Devices). For analysis of IRF pathway, secreted Gaussia Luciferase was measured. 25 µl supernatant was transferred to a white 96 well microtiter plate and Gaussia substrate (82.6 µg/ml Colenterazine, PJK, Cat: 102172) was automatically added according to manufacturer’s protocol and Luminescence was measured by Orion II Microplate Luminometer (Berthold).

A short description of data set [3]: Chemical stability of PNFs by HPLC and MALDI-TOF MS. Type of data set: physicochemical. The conditions noted are these: 2 mg/ml PNFs in PBS, RT or 37°C, 10 min, 1 h, 24 h, 10 d; reversed-phase C18 HPLC, UV 214 nm. Here is the method: RM-8 and D4 were prepared at 2 mg/ml in PBS and were incubated at room temperature (RT) or 37°C for 10 min, 1 hour, 24 hours, and 10 days. Aliquots (25 µL) of both samples were separated after 10 minutes, 1 hour, 24 hours, and 10 days and centrifuged at 13,000 x g for one minute. Supernatants were diluted with 100 µL 10% acetic acid, whereas the pellets were dissolved in 125 µL 6 M guanidinium chloride. All samples were analyzed in an Agilent 1100 Series HPLC system, using a reversed-phase BioBasicTM 18-HPLC column (Thermo Scientific) of dimensions 2.1 x 100 mm and particle size of 5 µm. Gradient elution was used for elution as follows (RM-8): 0 min/5%B, 1 min/20%B, and 15 min/40%B; and for D4: 0 min/5%B, 1 min/15%B, and 15 min/35/%B), being A, 0. 1% TFA in water, and B, 0.1% TFA in acetonitrile. The flow rate was 0.5 mL/min, and the detection was monitored online by UV absorption at 214 nm. ChemStation (version B.04.03, Agilent) was used for data acquisition and the HPLC system’s control.
Mass spectra were obtained with an Axima Confidence MALDI-TOF mass spectrometer (Shimadzu). Measurements were performed in positive ion reflectron mode. The mass range was 100–10000 Da. For each sample, 20 shots were accumulated per profile (100 profiles per spectra) using a laser power of 42% and a laser frequency of 50 Hz. TOFMix MALDI kit (Shimadzu) was used for external mass calibration. […]

In data set [4] the test system is human NK cells. The conditions noted are these: 4-day incubation, propidium iodide, three donors.
Description: NK cells were isolated from buffy coats of healthy donors by standard density-gradient centrifugation, using Ficoll-Paque (VWR, Cat: 17-1440-03) using the RosetteSep™ Human NK Cell Enrichment Cocktail ([sequence] Technologies, Cat: 15065). NK cells were cultured at 1×10^6 cells/ml in NK MACS medium (Miltenyi Biotec, Cat: 130-114-429) with 5% human AB serum (Sigma Aldrich, Cat: H4522-100ML), 500 U/ml IL-2 (Peprotech, Cat: 200-02) and 140 U/ml IL-15 (Peprotech, Cat: 200-15). […] 1.25×10^5 NK cells were seeded per well in a 48-well plate. […] Propidium Iodide (PI) (Miltenyi Biotec, Cat: 130-093-233) staining was used to determine the viability of NK cells.
Data set [5] deals with TZM-bl cells. Here is the method: To determine the effect of peptides on cellular metabolic activity, MTT (Thiazolyl blue tetrazolium bromide) Cell Growth Assay (Merck, Cat: CT02) and CellTiter-Glo Luminescent Cell Viability Assay (Promega, Cat: G7571) were performed. 10,000 TZM-bl cells or 50,000 Jurkat cells were seeded into 96-well plates and treated with indicated concentrations of peptides. For TZM-bl cells, the supernatants were removed after three days and 100 µl MTT (0.5 mg/ml) was added and incubated for 2.5 hours. For Jurkat cells, supernatants were removed after two days, and cells were incubated with 40 μl MTT (1 mg/ml) for 5 hours. Then the MTT solution was removed, and 100 µl 1:1 DMSO-Ethanol was added. The absorption was measured at 590 nm with baseline-corrected at 650 nm using VersaMax Microplate Reader (Molecular Devices). The CellTiter-Glo assay was performed according to the manufacturing protocol. 100 μl CellTiter-Glo Reagent 1:1 diluted in PBS (Gibco, 14200075) was added to pelleted Jurkat cells for 10 min followed by transferring 50 µl to white microplate, and luminescence was recorded by Orion microplate luminometer (Berthold).
(A) TZM-bl cells were treated […]
with different peptide concentrations. MTT assay was performed three days later. […] The cell viability in % was calculated by normalizing sample values to untreated control which was set to 100 %. […]

`CC[C@H](C)[C@H](NC(=O)[C@H](CCCNC(=N)N)NC(=O)[C@@H](N)CCCNC(=N)N)C(=O)N[C@@H](Cc1ccccc1)C(=O)N[C@H](C(=O)N[C@H](C(=O)N[C@@H](CO)C(=O)N[C@@H](CCSC)C(=O)O)[C@@H](C)CC)[C@@H](C)CC` [D4] (H-RRIFIISM-OH): the “T cell viability after GALV-RV transduction” value in data set [1] (four donors) is reported as “neither D4 PNF nor the other transduction enhancers affected T cell viability”. Moreover, the “Activation of NF-κB pathway at 50 µg/ml” value in data set [2] is listed as “significant activation of the NF-kB pathway”. The “Chemical stability by HPLC” value in data set [3] was “chemically stable for 10 days; also recorded: single peak with unchanged retention time”. Besides, the NK cell viability entry in data set [4] is given as “did not show any impact on cell viability”.

On to `CC[C@H](C)[C@H](NC(=O)[C@H](Cc1ccccc1)NC(=O)[C@@H](NC(=O)[C@@H](NC(=O)[C@@H](N)CCCNC(=N)N)[C@@H](C)O)[C@@H](C)CC)C(=O)N[C@H](C(=O)N[C@@H](CO)C(=O)N[C@@H](CCSC)C(=O)N[C@@H](Cc1ccc(O)cc1)C(=O)N[C@@H](CCCCN)C(=O)O)[C@@H](C)CC` [RK-10] (H-RTIFIISMYK-OH), for which the “Cytotoxicity, TZM-bl cells” value in data set [5] is reported as “not being cytotoxic”.

In the case of `CC[C@H](C)[C@H](NC(=O)[C@H](Cc1ccccc1)NC(=O)[C@@H](NC(=O)[C@@H](NC(=O)[C@@H](N)CCCNC(=N)N)[C@@H](C)O)[C@@H](C)CC)C(=O)N[C@H](C(=O)N[C@@H](CO)C(=O)N[C@@H](CCSC)C(=O)O)[C@@H](C)CC` [RM-8] (H-RTIFIISM-OH), in data set [1] (two donors), the “Cytotoxic effect on T cells, GALV-RV transduction” value is “not showing any cytotoxic effect”. Besides, in data set [5], the “Cytotoxicity, TZM-bl cells” value is recorded as “not being cytotoxic”. The “Chemical stability by HPLC” value in data set [3] is recorded as “chemically stable over time; also recorded: chemically stable for 10 days”. The “NK cell viability at highest concentration” value in data set [4] (30 µg/ml) is given as “slightly reduced cell viability”.
